Source: patent publication US10266535B2, “Inhibitor of FLT3 kinase and use thereof” (HEFEI INSTITUTES OF PHYSICAL SCIENCE, CHINESE ACADEMY OF …, priority 2015, dated 2019)
pIC50: −log10 of the molar value. Structures can show the parent of a compound that is named as a salt. Where two headings read alike, the source gives them in different places.

Key:
[1] = tested on: MV4-11 (expressing FLT3/ITD mutant gene); experiment: Cell proliferation, Cell Titer-Glo, MV4-11; format: cell-based; details: Homo sapiens; for pIC50: MV4-11, incubated for 72 hours, read-out: MV4-11 IC50
Method in brief: (§1)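 Read-out: luminescence from ATP in live cells (CellTiter-Glo), taken as viable cell number. Cell lines were built in-house.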

[2] = tested on: MOLM-13 (expressing FLT3/ITD mutant gene and wild-type FLT3 gene); experiment: Cell proliferation, Cell Titer-Glo, MOLM-13; format: cell-based; details: Homo sapiens; for pIC50: MOLM-13, incubated for 72 hours, read-out: MOLM-13 IC50
Method in brief: as §1

[3] = tested on: MOLM-14 (expressing FLT3/ITD mutant gene and wild-type FLT3 gene); experiment: Cell proliferation, Cell Titer-Glo, MOLM-14; format: cell-based; details: Homo sapiens; for pIC50: MOLM-14, incubated for 72 hours, read-out: MOLM-14 IC50
Description: (§2) The above cell lines were constructed by our laboratory.
(§3) The number of viable cells was determined by quantification of ATP in living cells using the Cell Titer-Glo® (Promega, USA) chemiluminescence cell viability assay kit.

[4] = tested on: TEL-BaF3-FLT3/ITD (stably expressing FLT3/ITD mutant activated kinase); experiment: Cell proliferation, Cell Titer-Glo, TEL-BaF3-FLT3/ITD; format: cell-based, mouse; details: Mus musculus, 72 h; for pIC50: incubated for 72 hours, read-out: TEL-BaF3-FLT3/ITD IC50
Method in brief: (§4)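 Proliferation of the engineered BaF3 lines was followed by measuring ATP in living cells with a CellTiter-Glo chemiluminescence viability kit, and the luminescent signal served as the count of viable cells.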

[5] = tested on: TEL-BaF3-FLT3-D835Y (stably expressing FLT3 D835Y mutant activated kinase); experiment: Cell proliferation, Cell Titer-Glo, TEL-BaF3-FLT3-D835Y; format: cell-based; details: Mus musculus; for pIC50: incubated for 72 hours, read-out: TEL-BaF3-FLT3-D835Y IC50
Description: as §2, §3

[6] = tested on: BaF3-FLT3-ITD-D835Y (stably expressing FLT3/ITD D835Y mutant activated kinase); experiment: Cell proliferation, Cell Titer-Glo, BaF3-FLT3-ITD-D835Y; format: cell-based; details: Mus musculus; for pIC50: incubated for 72 hours, read-out: BaF3-FLT3-ITD-D835Y IC50
Description: as §2, §3

[7] = tested on: BaF3-FLT3-ITD-F691L (stably expressing FLT3/ITD F691L mutant activated kinase); experiment: Cell proliferation, Cell Titer-Glo, BaF3-FLT3-ITD-F691L; format: cell-based; details: Mus musculus; for pIC50: incubated for 72 hours, read-out: BaF3-FLT3-ITD-F691L IC50
Description: as §2, §3

pro-B cell BaF3 = experiment: Cell proliferation, Cell Titer-Glo, BaF3; format: cell-based; details: Mus musculus, incubated for 72 hours
Method in brief: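 Cells from the in-house-constructed BaF3 lines were grown with compound. Viability was then scored by chemiluminescent detection of cellular ATP.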

[8] = tested on: U937 (expressing wild-type FLT3 gene); experiment: Cell proliferation, Cell Titer-Glo, U937; format: cell-based, human; details: Homo sapiens, U-937, 72 h; for pIC50: incubated for 72 hours, read-out: U937 IC50
Method in brief: as §1

[9] = tested on: TEL-BaF3-BMX (stably expressing BMX kinase); experiment: Cell proliferation, Cell Titer-Glo, TEL-BaF3-BMX; format: cell-based; details: Mus musculus; incubated for 72 hours
Method in brief: as §4

[10] = tested on: TEL-cKIT-BaF3 (stably expressing cKIT kinase); experiment: Cell proliferation, Cell Titer-Glo, TEL-cKIT-BaF3; format: cell-based; details: Mus musculus; incubated for 72 hours
Method in brief: as §4

[11] = tested on: TPR-MET-BaF3 (stably expressing MET kinase); experiment: Cell proliferation, Cell Titer-Glo, TPR-MET-BaF3; format: cell-based; details: Mus musculus; incubated for 72 hours
Description: as §2, §3

[12] = tested on: TEL-BaF3-EGFR (stably expressing EGFR kinase); experiment: Cell proliferation, Cell Titer-Glo, TEL-BaF3-EGFR; format: cell-based; details: Mus musculus; incubated for 72 hours
Description: as §2, §3

[13] = tested on: TEL-BaF3-BLK (stably expressing BLK kinase); experiment: Cell proliferation, Cell Titer-Glo, TEL-BaF3-BLK; format: cell-based; details: Mus musculus; incubated for 72 hours
Method in brief: as §4

[14] = tested on: TEL-JAK1-BaF3 (stably expressing JAK1 kinase); experiment: Cell proliferation, Cell Titer-Glo, TEL-JAK1-BaF3; format: cell-based; details: Mus musculus; incubated for 72 hours
Description: as §2, §3

BTK protein kinase = BTK protein kinase (Homo sapiens (Human), UniProt Q06187); experiment: In vitro inhibition activity (enzymatic activity), ADP-Glo, BTK; format: biochemical; details: ATP 10 μM
Chain of BTK protein kinase (Q06187 whole entry): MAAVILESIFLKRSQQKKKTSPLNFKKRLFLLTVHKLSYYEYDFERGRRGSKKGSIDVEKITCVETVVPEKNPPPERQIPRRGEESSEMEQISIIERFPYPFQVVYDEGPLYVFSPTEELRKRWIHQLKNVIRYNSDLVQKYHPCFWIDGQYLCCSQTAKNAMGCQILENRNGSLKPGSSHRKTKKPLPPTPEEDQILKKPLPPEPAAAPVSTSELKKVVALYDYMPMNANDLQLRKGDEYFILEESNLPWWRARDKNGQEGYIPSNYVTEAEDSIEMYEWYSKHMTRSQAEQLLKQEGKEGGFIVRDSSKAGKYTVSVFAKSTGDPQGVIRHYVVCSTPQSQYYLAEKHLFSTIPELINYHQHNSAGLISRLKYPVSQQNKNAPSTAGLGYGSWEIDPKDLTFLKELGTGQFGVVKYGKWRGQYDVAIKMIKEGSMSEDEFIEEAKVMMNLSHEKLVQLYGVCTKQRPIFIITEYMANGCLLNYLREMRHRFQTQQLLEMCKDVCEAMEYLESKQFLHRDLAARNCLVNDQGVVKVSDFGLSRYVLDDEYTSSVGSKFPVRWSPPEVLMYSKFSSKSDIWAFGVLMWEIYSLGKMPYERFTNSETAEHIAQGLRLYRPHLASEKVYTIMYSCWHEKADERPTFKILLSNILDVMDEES

[15] = tested on: OCI-AML-3 (expressing FLT3 A680V mutant gene); experiment: Cell proliferation, Cell Titer-Glo, OCI-AML3; format: cell-based; details: Homo sapiens, incubated for 72 hours
Method in brief: as §1

[16] = tested on: TEL-FLT3-BaF3 (stably expressing FLT3 kinase); experiment: Cell proliferation, Cell Titer-Glo, TEL-FLT3-BaF3; format: cell-based; details: Mus musculus; incubated for 72 hours; read-out: TEL-FLT3-BaF3 IC50
Description: as §2, §3

Row | Structure (SMILES) | pIC50 [1] | pIC50 [2] | pIC50 [3] | pIC50 [4] | pIC50 [5] | pIC50 [6] | pIC50 [7] | pIC50 (pro-B cell BaF3) | pIC50 [8] | pIC50 [9] | pIC50 [10] | pIC50 [11] | pIC50 [12] | pIC50 [13] | pIC50 [14] | pIC50 (BTK protein kinase) | further results
1 | NC(=O)C(=O)N1CCC[C@@H](n2nc(-c3ccc(Oc4ccccc4)cc3)c3c(N)ncnc32)C1 [Compound 5, (R)-2-(3-(4-amino-(4-phenoxyphenyl)-1H-pyrazolo[3,4-d]pyrimidin-1-yl)piperidin-1-yl)-2-oxamide] | 6.92 | 7.07 | 6.68 | 6.29 | 7.47 | 6.49 | 6.43 | < 5.00 | 5.19 | 6.70 | 5.66 | 5.24 | < 5.00 | 6.01 | 5.40 | 7.40 | –
2 | Nc1ncnc2c1c(-c1ccc(Oc3ccccc3)cc1)nn2[C@@H]1CCCN(C(=O)[C@H](N)Cc2c[nH]cn2)C1 [Compound 7, (R)-2-amino-1-((R)-3-(4-amino-(4-phenoxyphenyl)-1H-pyrazolo[3,4-d]pyrimidin-1-yl)piperidin-1-yl)-3-(1H-imidazol-4-yl)propan-1-one] | 8.00 | 8.92 | 7.64 | 8.05 | 6.52 | 6.96 | 6.60 | 6.36 | 6.27 | 6.48 | 6.46 | 6.28 | 6.00 | 7.29 | 6.43 | 7.57 | –
3 | Nc1ncnc2c1c(-c1ccc(Oc3ccccc3)cc1)nn2[C@@H]1CCCN(C(=O)[C@@H](N)Cc2ccc(O)cc2)C1 [Compound 11, (S)-2-amino-1-((R)-3-(4-amino-(4-phenoxyphenyl)-1H-pyrazolo[3,4-d]pyrimidin-1-yl)piperidin-1-yl)-3-(4-hydroxyphenyl)propan-1-one] | 7.66 | 7.92 | 7.34 | 7.32 | 7.70 | 6.55 | 6.59 | 6.02 | 5.47 | 6.36 | 6.08 | 5.85 | 5.66 | 7.05 | 6.47 | – | –
4 | Nc1ncnc2c1c(-c1ccc(Oc3ccccc3)cc1)nn2[C@@H]1CCCN(C(=O)N2CCNCC2)C1 [Compound 14, (R)-(3-(4-amino-(4-phenoxyphenyl)-1H-pyrazolo[3,4-d]pyrimidin-1-yl)piperidin-1-yl)(piperazin-1-yl)methanone] | 7.31 | 7.22 | 6.92 | 7.06 | 6.62 | 6.60 | 6.43 | 5.01 | 5.38 | 6.37 | 5.31 | 5.52 | 5.80 | 6.00 | 5.11 | 7.20 | –
5 | CC(C)C[C@@H](N)C(=O)N1CCC[C@@H](n2nc(-c3ccc(Oc4ccccc4)cc3)c3c(N)ncnc32)C1 [Compound 27, (R)-2-amino-1-((R)-3-(4-amino-(4-phenoxyphenyl)-1H-pyrazolo[3,4-d]pyrimidin-1-yl)piperidin-1-yl)-4-methylpentan-1-one] | 7.49 | 7.85 | 7.64 | 8.30 | 7.74 | 6.70 | 6.55 | 5.89 | 5.39 | 6.47 | 5.80 | 5.82 | 6.00 | 6.68 | 5.66 | 6.16 | –
6 | CS(=O)(=O)N1CCC[C@@H](n2nc(-c3ccc(Oc4ccccc4)cc3)c3c(N)ncnc32)C1 [Compound 30, (R)-1-(1-(methylsulfonyl)piperidin-3-yl)-3-(4-phenoxyphenyl)-1H-pyrazolo[3,4-d]pyrimidin-4-amine] | 6.77 | 6.89 | 6.59 | 7.32 | 6.19 | 5.60 | 5.28 | < 5.00 | < 5.00 | 6.85 | 5.36 | 5.03 | – | 5.46 | – | 5.74 | pIC50 [15]: < 5.00
7 | CN1CCC(C(=O)N2CCC[C@@H](n3nc(-c4ccc(Oc5ccccc5)cc4)c4c(N)ncnc43)C2)CC1 [Compound 33, (R)-(3-(4-amino-(4-phenoxyphenyl)-1H-pyrazolo[3,4-d]pyrimidin-1-yl)piperidin-1-yl)(1-methylpiperidin-4-yl)methanone] | 6.80 | 6.80 | 6.66 | 7.11 | 6.85 | 6.20 | 6.55 | 5.30 | < 5.00 | 7.15 | 5.70 | 5.84 | – | 6.21 | – | 6.38 | pIC50 [15]: 5.28
8 | CN(C)CC(=O)NC1CCC(n2nc(-c3ccc(Oc4ccccc4)cc3)c3c(N)ncnc32)CC1 (stereo not shown) [Compound 76, N-(4-(4-amino-3-(4-phenoxyphenyl)-1H-pyrazolo[3,4-d]pyrimidin-1-yl)cyclohexyl)-2-(dimethylamino)acetamide] | 7.57 | – | 7.44 | – | 7.64 | 6.89 | 6.74 | 5.38 | < 5.00 | 6.92 | 6.37 | – | – | 7.52 | – | 6.41 | IC50 ([4]; read-out: TEL-BaF3-FLT3/ITD IC50 [μM]): 0.0067 µM; pIC50 [16]: 7.38
9 | CS(=O)(=O)NC1CCC(n2nc(-c3ccc(Oc4ccccc4)cc3)c3c(N)ncnc32)CC1 (stereo not shown) [Compound 78, N-(4-(4-amino-3-(4-phenoxyphenyl)-1H-pyrazolo[3,4-d]pyrimidin-1-yl)cyclohexyl)methanesulfonamide] | – | – | – | – | – | – | – | 5.22 | – | 7.42 | 6.49 | – | – | 8.40 | – | – | IC50 ([1]; MV4-11, 72 h, read-out: MV4-11 IC50 [μM]): 0.018 µM; IC50 ([2]; MOLM-13, 72 h, read-out: MOLM-13 IC50 [μM]): 0.019 µM; IC50 ([3]; MOLM-14, 72 h, read-out: MOLM-14 IC50 [μM]): 0.11 µM; IC50 ([5]; 72 h, read-out: TEL-BaF3-FLT3-D835Y IC50 [μM]): 0.0076 µM; IC50 ([6]; 72 h, read-out: BaF3-FLT3-ITD-D835Y IC50 [μM]): 0.053 µM; IC50 ([7]; 72 h, read-out: BaF3-FLT3-ITD-F691L IC50 [μM]): 0.27 µM; IC50 ([8]; read-out: U937 IC50 [μM], incubated for 72 hours): 3.6 µM
10 | CC(C)[C@@H](N)C(=O)NC1CCC(n2nc(-c3ccc(Oc4ccccc4)cc3)c3c(N)ncnc32)CC1 (stereo partly drawn) [Compound 86, (R)-2-amino-N-(4-(4-amino-(4-phenoxyphenyl)-1H-pyrazolo[3,4-d]pyrimidin-1-yl)cyclohexyl)-3-methylbutanamide hydrochloride] | 7.70 | 9.00 | 8.30 | – | – | 8.22 | 6.82 | – | 5.85 | > 9.52 | 6.57 | 5.48 | 5.89 | 9.00 | – | – | pIC50 [16]: 8.40
